Laboratory results: patent US20210395674A1, “COMPOSITION FOR INCREASING BIOLOGICAL ACTIVITY OF STEM CELLS USING MIXTURE 4F” (YOUTH BIO GLOBAL CO., LTD., priority 2019, published 2021)

Tested on: umbilical cord blood monocytes (MNCs) / EPC colonies
Experiment: Colony formation, proliferative ability and cell cycle in xeno-free culture
Type: cell-based, human
Protocol: FIG. […] Specifically, the isolation and culture of […] (EPC) is performed by density difference centrifugation using ficoll after receiving umbilical cord blood (IRB approval number 05-2017-053, 50 cc or more) of mothers who visited the Department of Obstetrics and Gynecology, Pusan National University, Yangsan to obtain monocytes (MNCs). After red blood cell lysis, the cells were seeded (7>10^6 cells/well) in a 6-well plate coated with fibronectin (1 μg/cm^2), and were cultured for 5 days in an atmosphere of 5% CO2 at 37° C. under conditions of each medium ([…] endothelial cell differentiation (EGM2 media)). […] After culture, the medium was exchanged every day, and the EPC colony attachment was identified and subcultured when 70% or more thereof is under a confluent state. According to the type of culture medium, the cells obtained by culturing with the conventional vascular endothelial cell differentiation medium […]
[…] Example 11 were separated into single cells, and proliferative ability, cell cycle change, and colony formation ability were analyzed in the same manner as in Example 6. For the control group of this example, cells cultured by the conventional culture method (L-EPC) and cells cultured in a medium containing each single component in a xeno-free medium [a group treated with fucoidan (Fu, 0.1 μg/ml), a group treated with a tauroursodeoxycholic acid (TD, 25 μM), a group treated with oleuropein (OLP, 0.5 μM), and a group treated with a vascular endothelial growth factor (VEGF, 100 ng/ml)]were used.

vascular endothelial growth factor was tested. Which “colony formation ability (EPC colonies)” value (xeno-free medium) did it give?
Its value is “EPC colonies were identified”.

What about the “division time of the cells” value (xeno-free medium) of the same substance?
The value was “prolonged”.

What about the “expression of VE-cadherin” value (xeno-free medium with single component) of the same substance?
The value was “low”.
